# Laboratory results taken from BindingDB's records for doi:10.1016/s0960-894x(00)00660-0 (Clinical Research Institute of Montreal, 2001).
# Peptide text beside a SMILES is read from it. * marks the point of attachment. X1 = Cc1cc(O)cc(C)c1C[C@H](C)C(=O)*
# Tests used:
# [1] = Tested for binding affinity towards Opioid receptor mu 1 in rat and guinea pig brain membrane binding assays
# [2] = Tested for binding affinity towards Opioid receptor delta 1 in rat and guinea pig brain membrane binding assays
structure (smiles),measurement,setting,value
"Cc1cc(O)cc(C)c1C[C@H](C)C(=O)N[C@@H](C)C(=O)NCC(=O)N[C@@H](Cc1ccccc1)C(=O)N[C@@H](CC(C)C)C(N)=O [(S)-2-[(S)-2-(2-{(S)-2-[(S)-3-(4-Hydroxy-2,6-dimethyl-phenyl)-2-methyl-propionylamino]-propionylamino}-acetylamino)-3-phenyl-propionylamino]-4-methyl-pentanoic acid amide] (X1-AGFL-NH2)",Ki,[1],192 nM
same,Ki,[2],12 nM
